Where two headings read alike, the source gives them in different places.
System: MCF-7 human breast cancer cells
Experiment: Inhibition of growth of MCF-7 breast cancer cells (MTT), with MacSynergy II synergy analysis;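 note: cells treated five or six days with single agents or combinations, growth read by MTT, synergy surface equals observed % inhibition minus Bliss additive prediction, values under 0% signal antagonism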
Conditions: for inhibition at 0.1 µM / inhibition at 0.2 µM / inhibition at 0.4 µM / inhibition at 0.005 µM / inhibition at 0.01 µM / inhibition at 0.05 µM: Homo sapiens, MCF7, read-out: Percent Inhibition, Table E

CO[C@H]1C[C@@H]2CC[C@@H](C)[C@@](O)(O2)C(=O)C(=O)N2CCCC[C@H]2C(=O)O[C@H]([C@H](C)C[C@@H]2CC[C@@H](OC(=O)C(C)(CO)CO)[C@H](OC)C2)CC(=O)[C@H](C)/C=C(\C)[C@@H](O)[C@@H](OC)C(=O)[C@H](C)C[C@H](C)/C=C/C=C/C=C/1C [CCI-779, rapamycin 42-ester with 3-hydroxy-2-(hydroxymethyl)-2-methylpropionic acid]
inhibition at 0.1 µM (CCI-779 5 nM + CCI-779 100 nM): 51% | inhibition at 0.2 µM (CCI-779 5 nM + CCI-779 200 nM): 58.1% | inhibition at 0.4 µM (CCI-779 5 nM + CCI-779 400 nM): 64.1% | inhibition at 0.005 µM (CCI-779 10 nM + CCI-779 5 nM): 18.8% | inhibition at 0.01 µM (CCI-779 10 nM + CCI-779 10 nM): 23.5% | inhibition at 0.05 µM (CCI-779 10 nM + CCI-779 50 nM): 51.2% | inhibition at 0.1 µM (CCI-779 10 nM + CCI-779 100 nM): 54.8% | inhibition at 0.2 µM (CCI-779 10 nM + CCI-779 200 nM): 62.4% | inhibition at 0.4 µM (CCI-779 10 nM + CCI-779 400 nM): 65.2% | inhibition at 0.005 µM (CCI-779 50 nM + CCI-779 5 nM): 48.3% | inhibition at 0.01 µM (CCI-779 50 nM + CCI-779 10 nM): 46.9% | inhibition at 0.05 µM (CCI-779 50 nM + CCI-779 50 nM): 50.3% | inhibition at 0.1 µM (CCI-779 50 nM + CCI-779 100 nM): 54.6% | inhibition at 0.2 µM (CCI-779 50 nM + CCI-779 200 nM): 57.5% | inhibition at 0.4 µM (CCI-779 50 nM + CCI-779 400 nM): 60.2% | inhibition at 0.005 µM (CCI-779 100 nM + CCI-779 5 nM): 54.2% | inhibition at 0.01 µM (CCI-779 100 nM + CCI-779 10 nM): 52.9% | inhibition at 0.05 µM (CCI-779 100 nM + CCI-779 50 nM): 51% | inhibition at 0.1 µM (CCI-779 100 nM + CCI-779 100 nM): 55% | inhibition at 0.2 µM (CCI-779 100 nM + CCI-779 200 nM): 62.5% | inhibition at 0.4 µM (CCI-779 100 nM + CCI-779 400 nM): 66.8% | inhibition at 0.005 µM (CCI-779 200 nM + CCI-779 5 nM): 51.4% | inhibition at 0.01 µM (CCI-779 200 nM + CCI-779 10 nM): 57.1% | inhibition at 0.05 µM (CCI-779 200 nM + CCI-779 50 nM): 57.2% | inhibition at 0.1 µM (CCI-779 200 nM + CCI-779 100 nM): 59% | inhibition at 0.2 µM (CCI-779 200 nM + CCI-779 200 nM): 65.5% | inhibition at 0.4 µM (CCI-779 200 nM + CCI-779 400 nM): 66.8% | inhibition at 0.005 µM (CCI-779 400 nM + CCI-779 5 nM): 61.1% | inhibition at 0.01 µM (CCI-779 400 nM + CCI-779 10 nM): 61.1% | inhibition at 0.05 µM (CCI-779 400 nM + CCI-779 50 nM): 60% | inhibition at 0.1 µM (CCI-779 400 nM + CCI-779 100 nM): 62% | inhibition at 0.2 µM (CCI-779 400 nM + CCI-779 200 nM): 66.3% | inhibition at 0.4 µM (CCI-779 400 nM + CCI-779 400 nM): 69.7% | concentrations at which synergy was more pronounced (MCF-7, ERA-923 in combination with CCI-779 (Table A)): 300 to 400 nM | Percent Inhibition (Table A, CCI-779 5 nM, ERA-923 0 nM): −13.25% | Percent Inhibition (Table A, CCI-779 10 nM, ERA-923 0 nM): −1.54% | Percent Inhibition (Table A, CCI-779 50 nM, ERA-923 0 nM): 26.68% | Percent Inhibition (Table A, CCI-779 100 nM, ERA-923 0 nM): 37.93% | Percent Inhibition (Table A, CCI-779 200 nM, ERA-923 0 nM): 34.99% | Percent Inhibition (Table A, CCI-779 400 nM, ERA-923 0 nM): 39.43% | Percent Inhibition (Table E, CCI-779 5 nM + CCI-779 0 nM): 0.59% | Percent Inhibition (Table E, CCI-779 10 nM + CCI-779 0 nM): 4.91% | Percent Inhibition (Table E, CCI-779 50 nM + CCI-779 0 nM): 36.55% | Percent Inhibition (Table E, CCI-779 100 nM + CCI-779 0 nM): 42.35% | Percent Inhibition (Table E, CCI-779 200 nM + CCI-779 0 nM): 45.87% | Percent Inhibition (Table E, CCI-779 400 nM + CCI-779 0 nM): 55.78%

From patent US20020045638A1, “Method of treating estrogen receptor positive carcinoma” (priority 2000, published 2002)
